Results from PubChem BioAssay AID330 (DTP/NCI, 2004).
“And” between values parts separate entries of the source, which are not always exact repeats. Identical values can stand only once. Inconclusive results and toxic doses are left out. How the source made its calls: active means survival T/C of 150% or more; inactive means T/C below 125% in these data.

Test system: P388 leukemia ip, CD2F1 mice, survival T/C
Experiment: NCI In Vivo Anticancer Drug Screen. Data for tumor model P388 Leukemia (intraperitoneal) in CD2F1 (CDF1) mice
Settings: endpoint: median survival time, higher = longer survival
In short: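 Mice carrying the transplanted tumor received test compound or vehicle. Survival was recorded in each group, and the value is the treated-group measurement divided by that of the vehicle-treated control group.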

[1] = dose: 25.0 mg/kg/injection, schedule: Q01DX009 (ip), vehicle: saline
[2] = dose: 50.0 mg/kg/injection, schedule: Q01DX009 (ip), vehicle: saline
[3] = dose: 50.0 mg/kg/injection, schedule: Q01DX005 (ip), vehicle: Klucel (hydroxypropylcellulose) (HPC)
[4] = dose: 100.0 mg/kg/injection, schedule: Q01DX005 (ip), vehicle: Klucel (hydroxypropylcellulose) (HPC)
[5] = dose: 200.0 mg/kg/injection, schedule: Q01DX005 (ip), vehicle: Klucel (hydroxypropylcellulose) (HPC)
[6] = dose: 25.0 mg/kg/injection, schedule: Q01DX005 (ip), vehicle: Klucel (hydroxypropylcellulose) (HPC)
[7] = dose: 200.0 mg/kg/injection, schedule: Q04DX003 (ip), vehicle: saline with Tween-80
[8] = dose: 50.0 mg/kg/injection, schedule: Q01DX009 (ip), vehicle: Klucel (hydroxypropylcellulose) (HPC)
[9] = dose: 100.0 mg/kg/injection, schedule: Q01DX009 (ip), vehicle: Klucel (hydroxypropylcellulose) (HPC)
[10] = dose: 200.0 mg/kg/injection, schedule: Q01DX009 (ip), vehicle: Klucel (hydroxypropylcellulose) (HPC)
[11] = dose: 50.0 mg/kg/injection, schedule: Q01DX005 (ip), vehicle: saline with Tween-80
[12] = dose: 100.0 mg/kg/injection, schedule: Q01DX009 (ip), vehicle: saline
[13] = dose: 200.0 mg/kg/injection, schedule: Q01DX009 (ip), vehicle: saline
[14] = dose: 50.0 mg/kg/injection, schedule: Q01DX009 (ip), vehicle: saline with Tween-80
[15] = dose: 100.0 mg/kg/injection, schedule: Q01DX009 (ip), vehicle: saline with Tween-80
[16] = dose: 200.0 mg/kg/injection, schedule: Q01DX009 (ip), vehicle: saline with Tween-80

Measured: T/C

c1ccc(-n2ccnc2C2C3CCN2CC3)cc1 (configuration not stated)
inactive: dose: 12.5 mg/kg/injection, schedule: Q01DX009 (ip), vehicle: saline 104 % of control | [1] 104 % of control | [2] 111 % of control and 97 % of control

O=C(Nc1ccc(Cl)cc1)Nc1ccc(Cl)nn1
inactive: dose: 3.12 mg/kg/injection, schedule: Q04DX002 (ip), vehicle: Klucel (hydroxypropylcellulose) (HPC) 101 % of control | dose: 6.25 mg/kg/injection, schedule: Q04DX002 (ip), vehicle: Klucel (hydroxypropylcellulose) (HPC) 102 % of control | dose: 12.5 mg/kg/injection, schedule: Q04DX002 (ip), vehicle: Klucel (hydroxypropylcellulose) (HPC) 98 % of control | dose: 25.0 mg/kg/injection, schedule: Q04DX002 (ip), vehicle: Klucel (hydroxypropylcellulose) (HPC) 115 % of control | dose: 50.0 mg/kg/injection, schedule: Q04DX002 (ip), vehicle: Klucel (hydroxypropylcellulose) (HPC) 90 % of control | dose: 100.0 mg/kg/injection, schedule: Q04DX002 (ip), vehicle: Klucel (hydroxypropylcellulose) (HPC) 88 % of control and 95 % of control

CN=C1c2ccccc2C(=O)c2c1c(O)n(C)c2O
inactive: [3] 97 % of control | [4] 97 % of control | [5] 106 % of control

CN(C)c1ccc2c(SCC(=O)OCC(=O)[C@@]3(O)CC[C@H]4[C@@H]5CCC6=CC(=O)C=C[C@]6(C)[C@H]5C(=O)C[C@@]43C)c3ccc(N(C)C)cc3nc2c1
inactive: [6] 113 % of control

CCn1c2ccccc2c2cc(N=Nc3cc(C(C)C)c(O)cc3C)ccc21
inactive: dose: 100.0 mg/kg/injection, schedule: Q04DX003 (ip), vehicle: saline with Tween-80 93 % of control | [7] 102 % of control | dose: 400.0 mg/kg/injection, schedule: Q04DX003 (ip), vehicle: saline with Tween-80 102 % of control

CCC1CCCCN1C (configuration not stated)
inactive: dose: 25.0 mg/kg/injection, schedule: Q01DX005 (ip), vehicle: saline 103 % of control | [1] 105 % of control | dose: 50.0 mg/kg/injection, schedule: Q01DX005 (ip), vehicle: saline 98 % of control | [2] 110 % of control | dose: 100.0 mg/kg/injection, schedule: Q01DX005 (ip), vehicle: saline 95 % of control

CC(C)c1ccccc1[S+]1OC(C)(C)c2ccccc21 (configuration not stated)
inactive: [8] 107 % of control | [9] 103 % of control | [10] 95 % of control

NS(=O)(=O)c1ccc(NC(=O)Nc2c(Cl)cccc2Cl)cc1
inactive: [8] 96 % of control | [9] 87 % of control | [10] 95 % of control

CC1(CCC(=O)c2cc3c(cc2Br)OCO3)OCCO1
inactive: dose: 25.0 mg/kg/injection, schedule: Q01DX005 (ip), vehicle: saline with Tween-80 99 % of control | [11] 99 % of control | dose: 100.0 mg/kg/injection, schedule: Q01DX005 (ip), vehicle: saline with Tween-80 100 % of control

CCN1CC2(OC(=O)c3ccccc3NC(C)=O)CCC(OC)C34C1C(CC23)C1(O)CC(OC)C2CC4C1(O)C2OC (configuration not stated)
inactive: dose: 4.0 mg/kg/injection, schedule: Q01DX009 (ip), vehicle: Klucel (hydroxypropylcellulose) (HPC) 92 % of control | dose: 8.0 mg/kg/injection, schedule: Q01DX009 (ip), vehicle: Klucel (hydroxypropylcellulose) (HPC) 94 % of control | dose: 16.0 mg/kg/injection, schedule: Q01DX009 (ip), vehicle: Klucel (hydroxypropylcellulose) (HPC) 97 % of control | dose: 32.0 mg/kg/injection, schedule: Q01DX009 (ip), vehicle: Klucel (hydroxypropylcellulose) (HPC) 91 % of control

O=C(Nc1c2ccccc2nc2ccccc12)c1ccc([N+](=O)[O-])cc1
inactive: [3] 94 % of control | [4] 94 % of control | [5] 100 % of control

O=[N+]([O-])c1c(Nc2ccccc2)n(-c2ccccc2)c2ccc(O)cc12
inactive: dose: 3.12 mg/kg/injection, schedule: Q01DX005 (ip), vehicle: saline with Tween-80 92 % of control | dose: 6.25 mg/kg/injection, schedule: Q01DX005 (ip), vehicle: saline with Tween-80 102 % of control | dose: 12.5 mg/kg/injection, schedule: Q01DX005 (ip), vehicle: saline with Tween-80 90 % of control and 92 % of control | [11] 86 % of control

O=C1Cc2ccccc2N1C(=O)c1cccc(Br)c1
inactive: dose: 100.0 mg/kg/injection, schedule: Q01DX001 (ip), vehicle: Klucel (hydroxypropylcellulose) (HPC) 98 % of control | dose: 200.0 mg/kg/injection, schedule: Q01DX001 (ip), vehicle: Klucel (hydroxypropylcellulose) (HPC) 95 % of control

NC1=C(O)C(=O)C(c2c[nH]c3ccc(OCc4ccccc4)cc23)O1 (configuration not stated)
inactive: dose: 7.5 mg/kg/injection, schedule: Q01DX005 (ip), vehicle: Klucel (hydroxypropylcellulose) (HPC) 93 % of control | dose: 15.0 mg/kg/injection, schedule: Q01DX005 (ip), vehicle: Klucel (hydroxypropylcellulose) (HPC) 101 % of control | dose: 30.0 mg/kg/injection, schedule: Q01DX005 (ip), vehicle: Klucel (hydroxypropylcellulose) (HPC) 102 % of control and 96 % of control

Clc1ccnc2ccc3ccccc3c12
inactive: [2] 107 % of control | [12] 100 % of control and 101 % of control | [13] 100 % of control and 92 % of control

Cc1c([N+](=O)[O-])cc(Br)c2ccccc12
inactive: dose: 25.0 mg/kg/injection, schedule: Q01DX009 (ip), vehicle: water 108 % of control | dose: 50.0 mg/kg/injection, schedule: Q01DX009 (ip), vehicle: water 94 % of control | dose: 100.0 mg/kg/injection, schedule: Q01DX009 (ip), vehicle: water 93 % of control

CC(C)C1(C(C)C)OCCO1
inactive: [2] 100 % of control | [12] 109 % of control | [13] 109 % of control

CCCNC(=O)Nc1cc(Cl)ccc1OC
inactive: dose: 132.0 mg/kg/injection, schedule: Q04DX003 (ip), vehicle: saline with Tween-80 100 % of control | [7] 100 % of control | dose: 300.0 mg/kg/injection, schedule: Q04DX003 (ip), vehicle: saline with Tween-80 100 % of control

Cc1oc(-c2ccccc2)nc1C(N)=O
inactive: [14] 106 % of control and 89 % of control and 95 % of control | [15] 101 % of control and 91 % of control and 96 % of control | [16] 99 % of control and 100 % of control

CCCCCCC(=O)/C=C/c1ccc(OC)cc1OC
inactive: [14] 94 % of control | [15] 91 % of control | [16] 91 % of control

COC(=O)NC1=CCC(C(C)(C)C)CC1 (configuration not stated)
inactive: [6] 108 % of control | [3] 113 % of control | [4] 106 % of control | [5] 103 % of control

CC1[C@@H]2C[C@@H]3O[C@@]34[C@H]3CCC5Cc6nc7c(nc6C[C@@]5(C)C3(O)CC(=O)[C@@]24CO[C@]12OC(C)(C)CC2O)CC1CC[C@@H]2C3=C[C@H]4O[C@@]5(O[C@@](C)(CO)C[C@@H]5O)C(C)[C@@]4(O)[C@]3(C)[C@@H](O)CC2[C@]1(C)C7 (some centres not stated)
inactive: dose: 12.5 micrograms/kg/injection, schedule: Q01DX009 (ip), vehicle: saline + alcohol 107 % of control | dose: 25.0 micrograms/kg/injection, schedule: Q01DX009 (ip), vehicle: saline + alcohol 109 % of control | dose: 50.0 micrograms/kg/injection, schedule: Q01DX009 (ip), vehicle: saline + alcohol 114 % of control | dose: 100.0 micrograms/kg/injection, schedule: Q01DX009 (ip), vehicle: saline + alcohol 116 % of control
